Like-named read-outs stand apart in the source and are kept apart here.
Tests used:
[1] = Pharmacokinetic determination in SD rats, tail vein injection; format: in vivo; details: rat, plasma; male SD rats, intravenous, 1 mg/kg
Protocol: Healthy SD rats weighing 200±20 g, male, were randomly divided into groups with 6 rats in each group, and were administered by tail vein injection at a dose of 1 mg/kg. The blood sampling time points for pharmacokinetic analysis: 5 min, 15 min, 30 min, 2 h, 4 h, 6 h, 8 h, 24 h, and 48 h after administration. About 0.3 mL of whole blood was collected via the orbit and placed in a heparinized test tube, centrifugalized at 6000 rpm for 10 min to separate the plasma, and store at −80° C. for testing. The plasma concentrations of the each compounds were detected with an Agilent liquid mass spectrometry (LC-MS/MS, Agilent Jet Stream Electrometric spray ion), and the relevant pharmacokinetic parameters were calculated using the WinNonLin 7.0 pharmacokinetic software non-compartment model method.

PI3Kα = molecular target: T1, PI3Kα (Homo sapiens, UniProt P42336); experiment: PI3Kα molecular activity test (ADP-GLO); format: biochemical; details: for Selectivity (PI3Kδ IC50/PI3KαIC50): PI3Kδ IC50/PI3Kα IC50; for IC50: recombinant protein, 100 μM ATP, 2 hours at room temperature
T1 construct: purchased Carna Bioscience
Protocol: (§1) Instrument: ELISA Reader Envision™ (PerkinElmer, USA)
(§2) Materials: Human recombinant PI3K and PI3Kδ proteins, purchased from Carna Bioscience; ADP-GLO kit, purchased from Promega.
(§3) Take the PI3Kα Molecular Activity Test as an Example to Describe the Text Method of the PI3K Subtypes
(§4) PI3K-α recombinant protein and substrate ATP were diluted with kinase reaction buffer (50 mM Tris-HCl, pH 7.4, 2.1 mM DTT, 0.05% Tween-20, 10 mM MgCl2). […] The specific reaction system was 2% of DMSO, 0.8 ng/μL PI3K-α, and 100 μM ATP, the positive compound control groups and control wells were set, and there were 3 multiple-wells for each concentration of each sample. After incubating for 2 hours at room temperature, ADP-GLO Reagent and Kinase Detection Reagent were added respectively, and then Envision™ was used to detect the […] readings. The activity rate of the samples were calculated by the sample readings, and the calculation formula was: activity rate=(ODcompound−ODcontrol)/(ODDMSO−ODcontro) ×100%.

PI3Kδ = molecular target: T2, PI3Kδ (Homo sapiens, UniProt O00329); experiment: PI3Kδ molecular activity test (ADP-GLO); format: biochemical; details: recombinant protein
T2 construct: purchased Carna Bioscience
Protocol: as §1, §2, §3, §4

MCF7 (PIK3CA mut) = experiment: Tumor cell proliferation, CCK8 method, MCF7; format: cell-based, human; details: CCK8, MCF7, read-out: MCF7 (PIK3CA mut) proliferation IC50
Protocol: (§5) The IC50 value was calculated using Graphpad Prism V5.0 software.

KPL4 (PIK3CA mut) = experiment: Tumor cell proliferation, CCK8 method, KPL4; format: cell-based; details: CCK8, KPL4; read-out: KPL4 (PIK3CA mut) proliferation IC50
Protocol: as §5

SW48 (PIK3CA mut) = experiment: Tumor cell proliferation, CCK8 method, SW48; format: cell-based; details: CCK8, SW48, read-out: SW48 (PIK3CA mut) proliferation IC50
Protocol: as §5

ZR-75-1 (PTEN loss) = experiment: Tumor cell proliferation, CCK8 method, ZR-75-1; format: cell-based; details: CCK8, ZR-75-1
Protocol: as §5

Kasumi-1 cell line = experiment: In vivo efficacy, Kasumi-1 subcutaneous transplanted tumor in nude mice; details: 10 mg/Kg qd for 21 days, Kasumi-1 tumor, female nude mice, FIG. 1
Protocol: Female nude mice, weighing 20±3 g, were inoculated subcutaneously with Kasumi-1 cell line in their right axilla. The cell inoculation accounted for 1×10^7/mouse. After tumor formation, the diameter of the transplanted tumor was measured with a vernier caliper. When the tumor grown to 100-300 mm^3, the animals were divided into a model control group and administration groups with 6 […] in each group depending on body weight and tumor volume. The model control group was given the same amount of blank solvent. After grouping, the drugs were administered daily (qd) with a doge of 10 mg/Kg for 21 consecutive days. During the experiment, the diameter of the transplanted tumor and the weight of the mice were measured twice a week. The calculation formula of the tumor volume (TV) was: TV=½×a×b^2, where a and b represented length and width respectively. The relative tumor volume (RTV) was calculated from the measurement results, the calculation formula was: RTV=Vt/V0, where V0 was the tumor volume measured as grouping and administering (i.e. d0), and Vt was the tumor volume at each measurement. The evaluation index of anti-tumor activity was the relative tumor proliferation rate T/C(%), and the calculation formula was as follows: T/C(%)=(TRTV/CRTV)×100%, where TRTV: RTV of the treatment group; and CRTV: RTV of the negative control group.

T2 sequence (O00329 whole entry): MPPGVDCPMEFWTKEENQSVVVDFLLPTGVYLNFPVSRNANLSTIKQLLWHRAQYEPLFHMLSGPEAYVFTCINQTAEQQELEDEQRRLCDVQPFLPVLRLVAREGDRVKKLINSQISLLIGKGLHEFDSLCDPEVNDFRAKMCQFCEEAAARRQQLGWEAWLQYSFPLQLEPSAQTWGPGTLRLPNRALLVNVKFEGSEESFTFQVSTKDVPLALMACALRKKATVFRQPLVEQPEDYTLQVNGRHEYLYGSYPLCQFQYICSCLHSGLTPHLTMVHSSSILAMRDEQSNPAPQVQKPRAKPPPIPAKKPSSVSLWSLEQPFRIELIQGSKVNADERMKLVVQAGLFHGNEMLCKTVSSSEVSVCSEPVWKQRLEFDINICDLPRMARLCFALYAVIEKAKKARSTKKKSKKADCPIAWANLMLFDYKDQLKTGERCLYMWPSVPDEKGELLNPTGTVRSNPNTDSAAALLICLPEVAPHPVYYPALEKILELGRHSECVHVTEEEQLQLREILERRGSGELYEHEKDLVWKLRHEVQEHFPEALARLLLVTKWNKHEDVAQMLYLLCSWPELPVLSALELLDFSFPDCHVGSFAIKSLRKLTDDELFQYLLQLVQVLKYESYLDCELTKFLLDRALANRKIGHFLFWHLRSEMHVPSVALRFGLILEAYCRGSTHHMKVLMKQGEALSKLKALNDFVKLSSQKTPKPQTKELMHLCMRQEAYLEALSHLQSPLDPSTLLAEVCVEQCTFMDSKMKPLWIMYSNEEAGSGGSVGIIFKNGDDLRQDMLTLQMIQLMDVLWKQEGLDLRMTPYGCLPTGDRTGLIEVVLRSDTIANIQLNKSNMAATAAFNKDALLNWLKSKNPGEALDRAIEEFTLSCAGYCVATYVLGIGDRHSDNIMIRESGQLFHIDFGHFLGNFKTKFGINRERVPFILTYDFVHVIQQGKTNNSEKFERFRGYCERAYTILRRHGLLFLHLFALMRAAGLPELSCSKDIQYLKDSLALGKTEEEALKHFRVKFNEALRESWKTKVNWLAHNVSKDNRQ
T2 sequence (P27986 whole entry partner): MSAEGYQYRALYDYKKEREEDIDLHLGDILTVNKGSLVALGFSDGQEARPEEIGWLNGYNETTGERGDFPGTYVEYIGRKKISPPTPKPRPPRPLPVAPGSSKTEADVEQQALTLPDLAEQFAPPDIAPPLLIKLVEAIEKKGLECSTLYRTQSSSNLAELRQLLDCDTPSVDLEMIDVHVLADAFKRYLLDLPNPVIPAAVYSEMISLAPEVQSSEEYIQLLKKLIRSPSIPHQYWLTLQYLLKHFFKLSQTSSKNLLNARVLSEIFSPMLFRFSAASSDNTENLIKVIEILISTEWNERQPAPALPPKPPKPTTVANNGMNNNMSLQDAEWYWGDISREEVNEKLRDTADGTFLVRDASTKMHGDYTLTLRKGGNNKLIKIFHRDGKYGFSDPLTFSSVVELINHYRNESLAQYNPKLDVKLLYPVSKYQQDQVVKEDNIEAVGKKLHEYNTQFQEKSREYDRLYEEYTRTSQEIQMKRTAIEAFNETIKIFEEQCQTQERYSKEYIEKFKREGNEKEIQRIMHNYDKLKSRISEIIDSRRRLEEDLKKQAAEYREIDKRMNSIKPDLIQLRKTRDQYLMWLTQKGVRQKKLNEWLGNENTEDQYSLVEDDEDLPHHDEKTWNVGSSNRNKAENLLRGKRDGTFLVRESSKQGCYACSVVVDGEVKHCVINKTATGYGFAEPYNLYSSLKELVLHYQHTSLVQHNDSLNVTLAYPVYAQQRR
T1 sequence (P42336 whole entry): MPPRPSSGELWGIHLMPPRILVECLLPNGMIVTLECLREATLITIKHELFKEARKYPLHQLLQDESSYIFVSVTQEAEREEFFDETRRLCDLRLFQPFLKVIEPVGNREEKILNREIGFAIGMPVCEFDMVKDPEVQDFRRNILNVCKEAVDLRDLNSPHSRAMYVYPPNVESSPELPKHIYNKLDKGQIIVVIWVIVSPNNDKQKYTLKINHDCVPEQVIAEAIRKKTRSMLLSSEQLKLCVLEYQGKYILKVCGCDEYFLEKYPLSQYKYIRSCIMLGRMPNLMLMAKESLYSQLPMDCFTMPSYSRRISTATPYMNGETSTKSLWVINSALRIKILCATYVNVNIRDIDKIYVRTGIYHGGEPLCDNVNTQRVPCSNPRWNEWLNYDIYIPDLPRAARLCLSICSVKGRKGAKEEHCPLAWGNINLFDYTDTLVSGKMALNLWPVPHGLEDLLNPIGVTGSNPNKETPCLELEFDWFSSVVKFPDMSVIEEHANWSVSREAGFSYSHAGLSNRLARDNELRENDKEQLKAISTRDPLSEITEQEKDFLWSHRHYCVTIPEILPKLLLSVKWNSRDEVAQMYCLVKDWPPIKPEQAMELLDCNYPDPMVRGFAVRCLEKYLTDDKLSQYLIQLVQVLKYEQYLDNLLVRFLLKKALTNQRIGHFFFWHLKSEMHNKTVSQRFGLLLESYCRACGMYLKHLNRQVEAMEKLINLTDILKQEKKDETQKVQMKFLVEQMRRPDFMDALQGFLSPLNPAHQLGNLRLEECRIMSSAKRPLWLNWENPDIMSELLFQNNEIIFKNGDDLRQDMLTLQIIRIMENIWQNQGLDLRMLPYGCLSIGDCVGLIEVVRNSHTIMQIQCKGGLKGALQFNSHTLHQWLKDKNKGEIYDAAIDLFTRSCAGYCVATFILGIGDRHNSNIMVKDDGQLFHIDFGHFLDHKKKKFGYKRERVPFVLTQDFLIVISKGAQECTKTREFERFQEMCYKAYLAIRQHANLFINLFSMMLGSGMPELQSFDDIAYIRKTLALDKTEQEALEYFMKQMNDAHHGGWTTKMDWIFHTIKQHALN
T1 sequence (P27986 whole entry partner): as the sequence (P27986 whole entry partner) above

Compound | Vd [1] | clearance [1] | half-life [1] | Selectivity (PI3Kδ IC50/PI3KαIC50) (PI3Kα) | IC50 (PI3Kα) | IC50 (PI3Kδ) | IC50 (MCF7 (PIK3CA mut); Homo sapiens) | IC50 (KPL4 (PIK3CA mut)) | IC50 (SW48 (PIK3CA mut); Homo sapiens) | IC50 (ZR-75-1 (PTEN loss); Homo sapiens) | tumor growth inhibitory activity (Kasumi-1 cell line) | IC50 (MCF7 (PIK3CA mut)) | IC50 (SW48 (PIK3CA mut)) | IC50 (ZR-75-1 (PTEN loss))
CCn1c(NC(=O)c2cnc(N)nc2)cc2c3c(ccc2c1=O)OCO3 [14b′-1] | 3.9 L/kg | 65 mL/min/kg | 4.2 h | – | – | – | – | – | – | – | – | – | – | –
CCn1c(NC(=O)c2cnc(N)nc2)nc2c(OC)c(OCCCC(N)=O)ccc2c1=O [8b-9] | 3.9 L/kg | 26.7 mL/min/kg | 4.2 h | III (“III” represents >10 times) | < 20 nM | 20 to 200 nM | – | – | – | – | – | – | – | –
COc1c(OCC(N)=O)ccc2c(=O)n(C)c(NC(=O)c3cnc(N)nc3)nc12 [8a-2] | 3.2 L/kg | 30 mL/min/kg | 4.9 h | III (“III” represents >10 times) | < 20 nM | < 20 nM | < 20 nM | < 20 nM | < 20 nM | < 20 nM | – | – | – | –
CCn1c(NC(=O)c2cnc(N)nc2)nc2c(OC)c(OCC(N)=O)ccc2c1=O [8b-2] | – | – | – | III (“III” represents >10 times) | < 20 nM | 20 to 200 nM | < 20 nM | 20 to 200 nM | 20 to 200 nM | 20 to 200 nM | – | – | – | –
COc1c(OCCNS(C)(=O)=O)ccc2c(=O)n(C)c(NC(=O)c3cnc(N)nc3)nc12 [8a-30, 2-amino-N-(8-methoxy-3-methyl-7-(2-(methylsulfonamido)ethoxy)-4-oxo-3,4-dihydroquinazolin-2-yl) pyrimidine-5-carboxamide] | – | – | – | II (“II” represents 5-10 times) | < 20 nM | 20 to 200 nM | < 20 nM | 20 to 200 nM | 20 to 200 nM | 200 to 1000 nM | – | – | – | –
CCn1c(NC(=O)c2cnc(N)nc2)nc2c3c(ccc2c1=O)OCCCCCCCCO3 [14b-8] | – | – | – | I (“I” represents <5 times) | < 20 nM | < 20 nM | < 20 nM | 20 to 200 nM | 200 to 1000 nM | 200 to 1000 nM | – | – | – | –
COc1c(OCCC(N)=O)ccc2c(=O)n(C)c(NC(=O)c3cnc(N)nc3)nc12 [8a-3] | – | – | – | III (“III” represents >10 times) | < 20 nM | 20 to 200 nM | < 20 nM | < 20 nM | < 20 nM | < 20 nM | – | – | – | –
CCn1c(NC(=O)c2cnc(N)nc2)nc2c(OC)c(OCCS(N)(=O)=O)ccc2c1=O [8b-11] | – | – | – | II (“II” represents 5-10 times) | < 20 nM | < 20 nM | < 20 nM | < 20 nM | 20 to 200 nM | 20 to 200 nM | – | – | – | –
COc1c(OC[C@H](O)CN2CCOCC2)ccc2c(=O)n(C)c(NC(=O)c3cnc(N)nc3)nc12 [8a-28, (R)-2-amino-N-(7-(2-hydroxy-3-morpholinopropoxy)-8-methoxy-3-methyl-4-oxo-3,4-dihydroquinazolin-2-yl) pyrimidine-5-carboxamide] | – | – | – | II (“II” represents 5-10 times) | < 20 nM | 20 to 200 nM | < 20 nM | 20 to 200 nM | 20 to 200 nM | 200 to 1000 nM | strong tumor growth inhibitory activity | – | – | –
CCn1c(NC(=O)c2cnc(N)nc2)nc2c(OC)c(OCC(C)NS(C)(=O)=O)ccc2c1=O (centres unmarked) [8b-30, 2-amino-N-(3-ethyl-8-methoxy-7-(2-(methylsulfonamido)propoxy)-4-oxo-3,4-dihydroquinazolin-2-yl) pyrimidine-5-carboxamide] | – | – | – | II (“II” represents 5-10 times) | < 20 nM | 200 to 1000 nM | – | 20 to 200 nM | – | – | – | < 20 nM | 20 to 200 nM | 200 to 1000 nM
COc1c(OCCC(N)=O)ccc2c(=O)n(C)c(NC(=O)c3cnc(N)nc3)cc12 [8a′-3] | 2.9 L/kg | 41.7 mL/min/kg | 6.7 h | III (“III” represents >10 times) | < 20 nM | 20 to 200 nM | – | – | – | – | – | – | – | –
Cn1c(NC(=O)c2cnc(N)nc2)nc2c3c(ccc2c1=O)OCCCCCO3 [14a-5] | – | – | – | II (“II” represents 5-10 times) | < 20 nM | 20 to 200 nM | 20 to 200 nM | 200 to 1000 nM | 200 to 1000 nM | 200 to 1000 nM | – | – | – | –
CCn1c(NC(=O)c2cnc(N)nc2)nc2c3c(ccc2c1=O)OCCCO3 [14b-3] | 2.4 L/kg | 38.3 mL/min/kg | 4.7 h | – | – | – | – | – | – | – | – | – | – | –
CCOC(=O)COc1ccc2c(=O)n(C)c(NC(=O)c3cnc(N)nc3)nc2c1OC [8a-29] | – | – | – | III (“III” represents >10 times) | < 20 nM | 200 to 1000 nM | < 20 nM | 20 to 200 nM | 20 to 200 nM | 200 to 1000 nM | – | – | – | –
CCn1c(NC(=O)c2cnc(N)nc2)nc2c(OC)c(OCCCN3CCOCC3)ccc2c1=O [8b-1] | 3.8 L/kg | 31.7 mL/min/kg | 5.2 h | – | – | – | < 20 nM | < 20 nM | < 20 nM | < 20 nM | – | – | – | –
COc1c(OCCCN2CCOCC2)ccc2c(=O)n(C)c(NC(=O)c3cnc(N)nc3)nc12 [8a-1] | 4.2 L/kg | 33.3 mL/min/kg | 5.3 h | II (“II” represents 5-10 times) | < 20 nM | < 20 nM | < 20 nM | < 20 nM | < 20 nM | < 20 nM | – | – | – | –
CCn1c(NC(=O)c2cnc(N)nc2)nc2c3c(ccc2c1=O)OCCOCCOCCOCCO3 [14b-11] | – | – | – | I (“I” represents <5 times) | 20 to 200 nM | 20 to 200 nM | < 20 nM | 20 to 200 nM | 200 to 1000 nM | 200 to 1000 nM | – | – | – | –

— patent publication US12404269B2, “Aminoquinazolinone and aminoisoquinolinone derivatives and application thereof” (ZHEJIANG UNIVERSITY, priority 2018, dated 2025)
